Experiments:
[1] = DPPH radical scavenging assay; settings: 0.1 mM methanolic DPPH, 30 min in the dark, 517 nm; mean ± S.D., triplicate
Description: Some 1,2,3-triazole compounds are known to act either as inhibitors of free radical production or as radical scavengers. Therefore, the potential antioxidant property of the new 1,2,3-trizole compounds was evaluated by determining their DPPH and SOD radical scavenging ability. DPPH is a stable free radical that accepts an electron or hydrogen radical to become a stable species. Due to its odd electron, DPPH gives a strong absorption band at 517 nm. Antioxidants are suitable reducing agents and neutralize the free radicals by pairing the DPPH odd electron with a hydrogen atom, and the DPPH solution turns yellow, observed as the decrease in absorbance at 517 nm.
The compounds were tested for in vitro antioxidant activities by the 2,2-diphenyl-1-picrylhydrazyl (DPPH) free radical scavenging assay method. The total volume of the assay mixtures containing methanolic DPPH solution (0.1 mM) and different concentrations of samples was 1 mL. After incubation in the dark at room temperature for 30 min., absorbance of the samples (Asample) was measured at 517 nm. Assay mixture without compound was used as control (control absorbance, Acontrol). All experiments were carried out in triplicate and results were expressed as the mean ±standard deviation (S.D.). Butylatedhydroxyanisole (BHA) were used as the reference compound. Free radical scavenging effect was calculated using Equation (1).

[2] = molecular target: T1, Electric eel acetyl-cholinesterase enzyme (AchE, Type-VI-S; EC 3.1.1.7) (Electrophorus electricus, UniProt O42275); assay: biochemical; settings: mean ± S.D. of three independent experiments; Tris-HCl pH 8.00, 412 nm
T1 construct: purchased Sigma-Aldrich Type-VI-S
T1 sequence (O42275 24-633): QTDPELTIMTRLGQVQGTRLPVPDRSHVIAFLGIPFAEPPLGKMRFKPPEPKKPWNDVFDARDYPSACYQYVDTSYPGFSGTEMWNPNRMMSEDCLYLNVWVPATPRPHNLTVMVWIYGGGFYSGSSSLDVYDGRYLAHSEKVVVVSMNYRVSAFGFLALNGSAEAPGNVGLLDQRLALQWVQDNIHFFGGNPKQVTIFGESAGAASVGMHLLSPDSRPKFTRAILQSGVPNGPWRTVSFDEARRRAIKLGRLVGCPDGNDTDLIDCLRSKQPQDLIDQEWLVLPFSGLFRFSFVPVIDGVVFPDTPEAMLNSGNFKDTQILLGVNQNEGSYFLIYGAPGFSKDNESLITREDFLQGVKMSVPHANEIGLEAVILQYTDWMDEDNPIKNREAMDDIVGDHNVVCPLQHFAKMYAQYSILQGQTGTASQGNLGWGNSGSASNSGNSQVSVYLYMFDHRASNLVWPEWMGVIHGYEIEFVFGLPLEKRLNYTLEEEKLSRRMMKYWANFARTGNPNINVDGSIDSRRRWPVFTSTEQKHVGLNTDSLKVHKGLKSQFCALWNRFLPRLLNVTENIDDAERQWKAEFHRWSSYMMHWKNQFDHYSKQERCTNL
Description: Firstly, all of the compounds stock solution in DMF (1 × 10^−3 M) were prepared and then five different concentrations were prepared from stock solution in buffer (Tris-HCI pH 8.00) for experiments. Briefly 50 µL of 50 mM Tris-HCl buffer (pH 8.00), 125 µL of 3 mM DTNB (in buffer), 25 µL of 0.2 U/mL AChE and 25 µL of sample dissolved in buffer and incubated for 15 min. at 25 °C. Fifteen minutes later, 25 µL of 15 mM acetyl thiocholine iodide were added and incubated 5 min. at room temperature. The reaction was initiated by the addition of acetylcholine iodide. The hydrolysis of this substrate was monitored by the formation of the yellow 5-thio-2-nitrobenzoate anion as a result of the reaction DTNB with thiocholine, catalized by enzyme at a wave length of 412 nm using a 96-well microplate reader (Multiskan Go UV-spectrophotometer, Thermo Fisher Scientific Oy Ratastie 2, Vantaa, Finland).
Inhibition of AChE was calculated by the comparison of reaction rates of the samples relative to the blank sample (DMF in phosphate buffer pH = 8) using the Equation (1) where Acontrol is the activity of enzyme without test sample and Asample is the activity of enzyme with test sample: (1) Scavenging effects (%)=[(Acontrol−Asample)/Acontrol]×100
The experiments were carried out in triplicate and IC50 values were examined.

[3] = Superoxide radical scavenging assay (NBT photo reduction method); settings: pH 7.8, 30 °C, 10 min, 560 nm, mean ± S.D., triplicate
Description: Superoxide scavenging activity of the compounds and reference were tested in a non-enzymatic superoxide radical (O2^−•) generation assay using a modified spectrophotometrical nitro blue tetrazolium (NBT) photo reduction method. The total volume of the assay mixtures containing riboflavin (2 μM), methionine (13 mM), NBT ([…]), EDTA (0.1 mM), and the test samples (50 mM phosphate buffer, pH = 7.8) was 1 mL. After illuminating with a fluorescent lamp at 30 °C for 10 min., the absorbance of the samples (Asample) was measured at 560 nm. Assay mixture without the compound was used as control (control absorbance, Acontrol). All experiments were carried out in triplicate and results were expressed as the mean ± standard deviation (S.D.). Free O2^−• radical scavenging effect was calculated using Equation (1).

[4] = tested on: C. albicans ATCC 60193; assay: Agar-well diffusion antimicrobial screening; assay type: cell-based, Candida albicans

Structure (SMILES)	DPPH IC50 [1]	IC50 [2] [µM]	SOD IC50 [3]	Inhibition Zone Ca [4] [mm]
COc1ccc(O)c(C(C)(C)C)c1 [BHA, Butylatedhydroxyanisole, reference compound]	98.56 (±0.08) µg/mL			
CC(=O)c1ccc(OCc2cn(CCCn3cc(COc4ccc(C(C)=O)cc4)nn3)nn2)cc1 [Compound 2a, 1,1′-((((Propane-1,3-diylbis(1H-1,2,3-triazole-1,4-diyl))bis(methylene))bis(oxy))bis(4,1-phenylene))bis(ethan-1-one)]	155.49 (±0.08) µg/mL	64.7	45.12 (±0.04) µg/mL	
CC(=O)c1ccc(OCc2cn(CCCCn3cc(COc4ccc(C(C)=O)cc4)nn3)nn2)cc1 [Compound 2b, 1,1′-((((Butane-1,4-diylbis(1H-1,2,3-triazole-1,4-diyl))bis(methylene))bis(oxy))bis(4,1-phenylene))bis(ethan-1-one)]	158.72 (±0.05) µg/mL	52.3	107.54 (±0.07) µg/mL	
CC(=O)c1ccc(OCc2cn(CCCCCn3cc(COc4ccc(C(C)=O)cc4)nn3)nn2)cc1 [Compound 2c, 1,1′-((((Pentane-1,5-diylbis(1H-1,2,3-triazole-1,4-diyl))bis(methylene))bis(oxy))bis(4,1-phenylene))bis(ethan-1-one)]	175.65 (±0.06) µg/mL	67	147.36 (±0.05) µg/mL	6
CC(=O)c1ccc(OCc2cn(CCCCCCn3cc(COc4ccc(C(C)=O)cc4)nn3)nn2)cc1 [Compound 2d, 1,1′-((((Hexane-1,6-diylbis(1H-1,2,3-triazole-1,4-diyl))bis(methylene))bis(oxy))bis(4,1-phenylene))bis(ethan-1-one)]	152.84 (±0.05) µg/mL	62.4	154.79 (±0.06) µg/mL	6
CC(=O)c1ccc(OCc2cn(CCCCCCCCn3cc(COc4ccc(C(C)=O)cc4)nn3)nn2)cc1 [Compound 2e, 1,1′-((((Octane-1,8-diylbis(1H-1,2,3-triazole-1,4-diyl))bis(methylene))bis(oxy))bis(4,1-phenylene))bis(ethan-1-one)]	222.16 (±0.07) µg/mL	66.4	131.43 (±0.06) µg/mL	
CC(=O)c1ccc(OCc2cn(CCCCCCCCCCn3cc(COc4ccc(C(C)=O)cc4)nn3)nn2)cc1 [Compound 2f, 1,1′-((((Decane-1,10-diylbis(1H-1,2,3-triazole-1,4-diyl))bis(methylene))bis(oxy))bis(4,1-phenylene))bis-(ethan-1-one)]	167.51 (±0.05) µg/mL	50.8	88.15 (±0.06) µg/mL	
COc1cc(C(C)=O)ccc1OCc1cn(CCCn2cc(COc3ccc(C(C)=O)cc3OC)nn2)nn1 [Compound 3a]	141.57 (±0.08) µg/mL	63.3	120.53 (±0.04) µg/mL	6
COc1cc(C(C)=O)ccc1OCc1cn(CCCCn2cc(COc3ccc(C(C)=O)cc3OC)nn2)nn1 [Compound 3b, 1-(4-((1-(4-(4-((4-Acetyl-2-methoxyphenoxy)methyl)-1H-1,2,3-triazol-1-yl)butyl)-1H-1,2,3-triazol-4-yl)-methoxy)-2-methoxyphenyl)ethan-1-one]	113.63 (±0.05) µg/mL	57	51.37 (±0.07) µg/mL	
COc1cc(C(C)=O)ccc1OCc1cn(CCCCCn2cc(COc3ccc(C(C)=O)cc3OC)nn2)nn1 [Compound 3c]	188.45 (±0.11) µg/mL	75.7	284.10 (±0.07) µg/mL	
COc1cc(C(C)=O)ccc1OCc1cn(CCCCCCCCCCn2cc(COc3ccc(C(C)=O)cc3OC)nn2)nn1 [Compound 3f]	207.57 (±0.09) µg/mL	78.6	98.35 (±0.06) µg/mL	
O=Cc1ccc(OCc2cn(CCCn3cc(COc4ccc(C=O)cc4)nn3)nn2)cc1 [Compound 4a, 4,4′-(((Propane-1,3-diylbis(1H-1,2,3-triazole-1,4-diyl))bis(methylene))bis(oxy))dibenzaldehyde]	192.02 (±0.12) µg/mL	62.8	55.67 (±0.08) µg/mL	
O=Cc1ccc(OCc2cn(CCCCn3cc(COc4ccc(C=O)cc4)nn3)nn2)cc1 [Compound 4b, 4,4′-(((Butane-1,4-diylbis(1H-1,2,3-triazole-1,4-diyl))bis(methylene))bis(oxy))dibenzaldehyde]	125.05 (±0.08) µg/mL	74.1	121.74 (±0.08) µg/mL	6
O=Cc1ccc(OCc2cn(CCCCCn3cc(COc4ccc(C=O)cc4)nn3)nn2)cc1 [Compound 4c, 4,4′-(((Pentane-1,5-diylbis(1H-1,2,3-triazole-1,4-diyl))bis(methylene))bis(oxy))dibenzaldehyde]	227.38 (±0.07) µg/mL	83.4	60.32 (±0.07) µg/mL	6
O=Cc1ccc(OCc2cn(CCCCCCn3cc(COc4ccc(C=O)cc4)nn3)nn2)cc1 [Compound 4d, 4,4′-(((Hexane-1,6-diylbis(1H-1,2,3-triazole-1,4-diyl))bis(methylene))bis(oxy))dibenzaldehyde]	204.31 (±0.11) µg/mL	58.5	82.77 (±0.11) µg/mL	
O=Cc1ccc(OCc2cn(CCCCCCCCCCn3cc(COc4ccc(C=O)cc4)nn3)nn2)cc1 [Compound 4f, 4,4′-(((Decane-1,10-diylbis(1H-1,2,3-triazole-1,4-diyl))bis(methylene))bis(oxy))dibenzaldehyde]	210.33 (±0.08) µg/mL	62.5	93.47 (±0.09) µg/mL	
COc1cc(C=O)ccc1OCc1cn(CCCn2cc(COc3ccc(C=O)cc3OC)nn2)nn1 [Compound 5a]	150.03 (±0.08) µg/mL	74.7	126.2 (±0.07) µg/mL	
COc1cc(C=O)ccc1OCc1cn(CCCCn2cc(COc3ccc(C=O)cc3OC)nn2)nn1 [Compound 5b]	154.51 (±0.07) µg/mL	61.8	109.17 (±0.10) µg/mL	
COc1cc(C=O)ccc1OCc1cn(CCCCCn2cc(COc3ccc(C=O)cc3OC)nn2)nn1 [Compound 5c]	192.46 (±0.11) µg/mL	69.4	145.68 (±0.11) µg/mL	
COc1cc(C=O)ccc1OCc1cn(CCCCCCn2cc(COc3ccc(C=O)cc3OC)nn2)nn1 [Compound 5d]	191.39 (±0.08) µg/mL	70.3	157.14 (±0.07) µg/mL	
COc1cc(C=O)ccc1OCc1cn(CCCCCCCCn2cc(COc3ccc(C=O)cc3OC)nn2)nn1 [Compound 5e]	221.57 (±0.06) µg/mL	61.8	188.84 (±0.08) µg/mL	

Source: publication PMC6274262, “Synthesis of Novel Symmetrical 1,4-Disubstituted 1,2,3-Bistriazole Derivatives via ‘Click Chemistry’ and Their Biological Evaluation” (Molecules, 2016)
